Reference: patent US10208015B2, “Aryl-triazolyl pyridines as pest control agents” (BAYER ANIMAL HEALTH GMBH, priority 2014, dated 2019)

Tests used:
[1] = logP by HPLC on reversed-phase column (C18), EEC Directive 79/831 Annex V.A8; format: physicochemical; conditions: HPLC, C18, acetonitrile (0.1% formic acid)/water (0.09% formic acid) gradient
[2] = test system: Boophilus microplus Parkhurst strain, SP-resistant; test: Boophilus microplus dip test; format: in vivo; conditions: application rate 100 ppm, assessed after 7 days
Procedure: Boophilus microplus—Dip Test
• Test animals: cattle ticks (Boophilus microplus) Parkhurst strain, SP-resistant • Solvent: dimethyl sulphoxide
10 mg of active compound are dissolved in 0.5 ml of dimethyl sulphoxide. To produce a suitable formulation, the active compound solution is diluted with water to the concentration desired in each case.
This active compound preparation is pipetted into tubes. 8-10 engorged adult female cattle ticks (Boophilus microplus) are transferred into a further tube with holes. The tube is immersed into the active compound preparation, and all the ticks are completely wetted. After the liquid has run out, the ticks are transferred on filter discs into plastic dishes and stored in a climate-controlled room.
Efficacy is assessed after 7 days by laying of fertile eggs. Eggs which are not visibly fertile are stored in a climate-controlled cabinet until the larvae hatch after about 42 days. An efficacy of 100% means that none of the ticks has laid any fertile eggs; 0% means that all the eggs are fertile.

Boophilus microplus = Boophilus microplus injection test; format: in vivo; conditions: application rate 20 μg/animal, assessed after 7 days
Procedure: Boophilus microplus—Injection Test • Solvent: dimethyl sulphoxide […] The animals are transferred into dishes and kept in a climate-controlled room. Efficacy is assessed after 7 days by laying of fertile eggs. Eggs which are not visibly fertile are stored in a climate-controlled cabinet until the larvae hatch after about 42 days.

Ctenocephalides felis = Ctenocephalides felis oral test; format: in vivo; conditions: application rate 100 ppm in citrated cattle blood, after 2 days
How it was run: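 Compound in DMSO, diluted to test concentration in citrated cattle blood, was fed through a parafilm membrane from a metal cylinder. About 20 unfed adult cat fleas were held in a gauze-closed chamber beneath it.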

Lucilia cuprina = Lucilia cuprina test; format: in vivo; conditions: application rate 100 ppm, L1 larvae, after 2 days
How it was run: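 About 20 L1 larvae of Lucilia cuprina are placed on minced horsemeat treated with compound (DMSO concentrate diluted in water to the test concentration). Kill is scored after 2 days, where 100% means all larvae dead and 0% none dead.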

Musca domestica = Musca domestica test; format: in vivo; conditions: application rate 100 ppm, adult houseflies, after 2 days
How it was run: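 Adult houseflies (10 per vessel) exposed to a sugar-solution-treated sponge carrying compound diluted in water from a DMSO concentrate at the desired concentration. Kill in % scored after 2 days; 100% = all flies dead, 0% = none.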

Myzus persicae = Myzus persicae spray test; format: in vivo; conditions: application rate 100 g/ha, after 6 days
Procedure: Myzus Persicae—Spray Test […] To produce further test concentrations, the preparation is diluted with emulsifier-containing water. Discs of Chinese cabbage leaves (Brassica pekinensis) infested by all stages of the green peach aphid (Myzus persicae) are sprayed with an active compound preparation of the desired concentration.

Phaedon cochleariae = Phaedon cochleariae spray test; format: in vivo; conditions: application rate 100 g/ha, after 7 days
Procedure: Phaedon Cochleariae—Spray Test
(§1) • Solvent: 78.0 parts by weight of acetone • 1.5 parts by weight of dimethylformamide • Emulsifier: alkylaryl polyglycol ether
(§2) To produce a suitable preparation of active compound, 1 part by weight of active compound is dissolved using the stated parts by weight of solvent and made up with water containing an emulsifier concentration of 1000 ppm until the desired concentration is attained. To produce further test concentrations, the preparation is diluted with emulsifier-containing water.
After 7 days, the efficacy in % is determined. 100% means that all the beetle larvae have been killed; 0% means that no beetle larvae have been killed.

Spodoptera frugiperda = Spodoptera frugiperda spray test; format: in vivo; conditions: application rate 100 g/ha, after 7 days
Procedure: Spodoptera Frugiperda—Spray Test
as §1, §2
Leaf discs of maize (Zea mays) are sprayed with an active compound preparation of the desired concentration and, after drying, populated with caterpillars of the armyworm (Spodopterafrugiperda).
After 7 days, the efficacy in % is determined. 100% means that all the caterpillars have been killed; 0% means that no caterpillars have been killed.

Tetranychus urticae = Tetranychus urticae spray test, OP-resistant; format: in vivo; conditions: application rate 100 g/ha, after 6 days
Procedure: Tetranychus Urticae—Spray Test, OP-Resistant
as §1
To produce further test concentrations, the preparation is diluted with emulsifier-containing water.
After 6 days, the efficacy in % is determined. 100% means that all the spider mites have been killed; 0% means that none of the spider mites have been killed.

[3] = test system: Anopheles gambiae strain RSPH (homozygot kdr); conditions: application rate 40 mg/m^2, exposure 30 minutes, 24 hours after contact
Procedure: Anopheles Test (ANPHGB Surface Treatment)
(§3) • Solvent: acetone+2000 ppm rapeseed oil methyl ester (RME)
The exposure time is 30 minutes.
(§4) 24 hours after contact with the treated surface, mortality in % is determined. 100% means that all the mosquitoes have been killed; 0% means that none of the mosquitoes have been killed.

[4] = test system: Anopheles funestus strain FUMOZ-R; conditions: application rate 40 mg/m^2, exposure 30 minutes, 24 hours after contact
Procedure: Anopheles Test (ANPHFU Surface Treatment)
as §3
The exposure time is 30 minutes.
as §4

O=C(NC1CC1)c1cc(-c2cn(-c3c(Cl)cc(C(F)(C(F)(F)F)C(F)(F)F)cc3C(F)(F)F)nn2)cnc1Cl [Example 16]
logP [1]: 4.0
efficacy (laying of fertile eggs) [2]: 100%
efficacy (laying of fertile eggs) (Boophilus microplus): 100%
efficacy (kill in %) (Ctenocephalides felis): 100%
efficacy (kill in %) (Lucilia cuprina): 100%
efficacy (kill in %) (Musca domestica): 100%
efficacy in % (Myzus persicae): 90%
efficacy in % (Phaedon cochleariae): 100%
efficacy in % (Spodoptera frugiperda): 100%
efficacy in % (Tetranychus urticae): 100%
efficacy (mortality in %) [3]: 90-100%
efficacy (mortality in %) [4]: 90-100%
